Results from patent US20230118467A1, “COSMETIC OR PHARMACEUTICAL USE OF AVENANTHRAMIDE L” (priority 2020, published 2023).
Values joined by “and” are separate entries in the source; they are usually repeats but may differ in a detail not shown here. Identical values can stand only once. Like-named read-outs stand apart in the source and are kept apart here.

Columns and labels:
[1] = molecular target: T1, tachykinin NK1 receptor (Homo sapiens, UniProt P25103); assay: NK1 receptor inhibition study, radioligand binding assay ([3H] Substance P); details: for inhibition at 0.1 ppm / inhibition at 1 ppm / inhibition at 10 ppm / inhibition at 100 ppm / inhibition at 125 ppm: read-out: Percent inhibition of specific binding to the tachykinin NK1 receptor; for inhibition at 125 ppm: test concentration 125 ppm (Example 7)
T1 construct: expressed in transfected cells; host or cells: CHO cells
T1 sequence (P25103 whole entry): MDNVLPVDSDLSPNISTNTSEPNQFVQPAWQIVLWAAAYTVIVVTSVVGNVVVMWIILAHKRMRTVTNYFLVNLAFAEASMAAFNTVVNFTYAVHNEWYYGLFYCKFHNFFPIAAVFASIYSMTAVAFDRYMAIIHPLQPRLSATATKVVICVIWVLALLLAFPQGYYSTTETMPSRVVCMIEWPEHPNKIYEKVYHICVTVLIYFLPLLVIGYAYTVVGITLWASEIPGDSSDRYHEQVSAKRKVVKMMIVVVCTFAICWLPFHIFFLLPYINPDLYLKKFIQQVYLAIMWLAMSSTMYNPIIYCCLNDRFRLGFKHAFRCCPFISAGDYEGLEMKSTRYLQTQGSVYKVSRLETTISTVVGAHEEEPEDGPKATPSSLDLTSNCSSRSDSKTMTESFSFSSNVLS
Procedure: The inhibition activity of avenanthramide L versus dihydroavenanthramide D and the structurally related avenanthramides A and D was evaluated in a radioligand binding assay.
The method employed in this study was adapted from the scientific literature so as to maximise reliability and reproducibility. Reference compound L-703,606 was run as an integral part of each experiment, to ensure the validity of the results obtained. The assay was performed under the conditions described in the following respective method.
Source: Human recombinant CHO cells
Incubation time/temperature: 90 minutes at 4° C. Incubation buffer: 20 mM HEPES, pH 7.4, • 1 mM MnCl2 • 0.1% BSA
Ligand: 0.80 nM [3H] Substance P
Non-specific ligand: 10.0 μM L-703,606 oxalate salt (CAS 144425-84-3) Specific binding: 90% Significance criteria: ≥50% of max. stimulation or inhibition Bmax: 1.70 pmol/mg protein
In another experiment, the inhibitory activity of a combination of avenanthramide L and another avenanthramide was evaluated in comparison to both substances alone in the radioligand binding assay as described in Example 1 to investigate a potential synergism.

[2] = Temperature stability at 40° C. of avenanthramide mixture in solution; type: physicochemical; details: for Content after 2 weeks at 40° C. / Content after 4 weeks at 40° C. / Content before treatment: Avn in mixture DragoCalm (glycerin/water); for Content before treatment: HPLC; for Degradation in %: Avn in mixture DragoCalm
Text: with p=sample 1 and v=sample 2

[3] = Oxidative stability (Oxipress) of avenanthramides in solution; details: for Content after treatment / Degradation in %: 5 bars of oxygen at 70° C. for 24 hours; for Content before treatment: HPLC; for ΔE (colour difference, CIELAB): before vs after 5 bars of oxygen at 70° C. for 24 hours
[4] = tested on: HSPB2 (=HSP27); assay: Gene expression in neonatal human epidermal keratinocytes (real-time PCR): HSPB2; type: cell-based; details: 100 μM, 24 hours, nHEK, vs DMSO vehicle; RQ ≥2.0 relevant
Procedure: (§1) Neonatal human epidermal keratinocytes (nHEK) were cultivated in an EpiLife® medium (Gibco) including an HKGS kit (Gibco) with 5% C02 at 37° C. in accordance with the supplier's instructions.
(§2) The cells were treated for 24 hours, with the test compounds dissolved in DMSO and DMSO alone as the vehicle control. Genomic target expression levels in treated cells were measured using a quantitative Real-Time PCR comparison to vehicle control treatment.
(§3) RNA was isolated using Qiagen's RNeasy® Mini Kit. The total RNA concentrations were measured using Eppendorf's pCuvetteG 1.0 and BioPhotometer, by measuring the absorption at 260 nm. Purity control values such as E260/280 and E260/230 were calculated simultaneously. Reverse transcription was performed using the high-capacity RNA-to-cDNA kit of Applied Biosystems, in accordance with the supplier's instructions. Samples were treated in Biometra's PCR Thermocycler.
(§4) For fast real-time PCR, the cDNA was diluted with RNase-free water, and the TaqMan™ Fast Universal PCR Master Mix of Applied Biosystems was used.
(§5) Quantitative real-time PCR was performed using the StepOnePlus fast real-time PCR instrument by Applied Biosystems. Analysis was conducted using the StepOne software and 2^−ΔΔct method (normalised to endogenous control […] expression).
(§6) For upregulations, RQ values ≥2.0 are considered to be relevant.

[5] = tested on: BLVRB; assay: Gene expression in neonatal human epidermal keratinocytes (real-time PCR): BLVRB; type: cell-based; details: 100 μM, 24 hours, nHEK, RQ ≥2.0 relevant
Procedure: as §1, §2, §3, §4, §5
(§7) For upregulations, RQ values ≥2.0 are considered to be relevant. […]

[6] = tested on: CD44; assay: Gene expression in neonatal human epidermal keratinocytes (real-time PCR): CD44; type: cell-based; details: 100 μM, 24 hours, nHEK, RQ ≥2.0 relevant
Procedure: as §1, §2, §3, §4, §5, §7

[7] = Radical-scavenging activity (ABTS assay); type: biochemical; details: absorption at 734 nm
Text: The ABTS assay measures the relative ability of antioxidants to scavenge the ABTS radical generated in aqueous phase, as compared with a Trolox (water-soluble vitamin E analogue) standard. The green-blue stable radical cationic chromophore 2,2′-azino-bis(3-ethylbenzothiazoline-6-sulphonate) (ABTS^•+) is generated by reaction with the ABTS salt using a strong oxidising agent (for example potassium permanganate or potassium persulphate) and has absorption maxima at 414, 645, 734 and 815 nm. The reduction of the blue-green ABTS radical by hydrogen-donating antioxidants is measured by the suppression of its characteristic long wave absorption spectrum.
With the aid of the ABTS assay, the antioxidative capacity of Avn L and Avn A were evaluated and compared.
2,2′-azino-bis-(3-ethylbenzothiazoline-6-sulphonic acid) (ABTS) was transformed into the blue-green radical cation ABTS^•+ using potassium persulphate. Through the addition of [6]-paradol and alpha-tocopherol, the radical cations were reduced and discoloration was observed, as determined photometrically by absorption at 734 nm. Inhibition of radical formation in the test substance is calculated by the following formula: […]
where • Atest substance is the absorption in the wells with the test substance including [6]-paradol and alpha-tocopherol • Acontrol is the absorption in the wells with no test substance.
Values for IC50 (the concentration at which radical formation is inhibited by 50%) were calculated from the inhibition of radical formation [%] in a series of dilutions of tested samples.

[8] = tested on: Primary human dermal fibroblasts; assay: Cellular antioxidant activity (DCF-DA assay); type: cell-based; details: 24 h incubation, prooxidant challenge 1 mM 1 h; for inhibition at 500 µM: Homo sapiens, Fibroblast, read-out: Inhibition of oxidation
Procedure: The DCF-DA assay is a fluorometric microplate assay for the detection of oxidative stress by detecting oxidation of 2′,7′-dichlorofluorescein-diacetate (DCF-DA) into the highly fluorescent compound 2′,7′-dichlorofluorescein (DCF) due to the presence of reactive oxygen species (ROS). The DCF-DA assay allows the cellular antioxidant activity of a substance to be determined.
Primary human dermal fibroblasts were seeded in a 96-well microtiter plate at a concentration of 0.5×10^4 cells/well. Cultivation took place at 37° C. and 5% CO2 in DMEM, enriched with 10% foetal calf serum. Confluence was supposed to be around 70% at the time, the incubation with the test substances began. The test substances were applied to the cells at a concentration of 500 μM. After 24 h of incubation, 100 μL H2DCF-DA-solution (10 μM) incl. DAPI (1:1000) was added to all samples (excluded the background-control) and incubated for one hour to deesterify the H2DCF-DA by cellular esterases. The resulting H2DCF was thereby trapped inside the cell. After the incubation, the cells were washed and the prooxidant challenge was set (1 mM, 1 h). The resulting fluorescence was read at λex 504 nm; λem 524 nm. An increased level of ROS (reactive oxygen species) led to an increased amount of fluorescence.
The inhibition of the oxidation in the presence of test substances was calculated according to the following equation: […]
The abbreviations have the following meanings: • RFU test substance: Relative fluorescence units of the wells with test substance and with cells • RFU control: Relative fluorescence units of the wells without test substance, but with cells • RFU without cells: Relative fluorescence units of the wells without test substance and without cells (blank)

[9] = tested on: HPRT1 (housekeeping); assay: Gene expression in neonatal human epidermal keratinocytes (real-time PCR): HPRT1; type: cell-based; details: 100 μM, 24 hours
Procedure: as §1, §2, §3, §4, §5, §7

[10] = tested on: CRYAB; assay: Gene expression in neonatal human epidermal keratinocytes (real-time PCR): CRYAB; type: cell-based; details: 100 μM, 24 hours, nHEK, vs DMSO vehicle, RQ ≥2.0 relevant
Procedure: as §1, §2, §3, §4, §5, §6

[11] = tested on: HSP90AA1; assay: Gene expression in neonatal human epidermal keratinocytes (real-time PCR): HSP90AA1; type: cell-based; details: 100 μM, 24 hours, nHEK, vs DMSO vehicle, RQ ≥2.0 relevant
Procedure: as §1, §2, §3, §4, §5, §6

[12] = tested on: HSP90AB1; assay: Gene expression in neonatal human epidermal keratinocytes (real-time PCR): HSP90AB1; type: cell-based; details: 100 μM, 24 hours, nHEK, vs DMSO vehicle, RQ ≥2.0 relevant
Procedure: as §1, §2, §3, §4, §5, §6

[13] = 24 h
[14] = Avn in mixture DragoCalm SP (glycerin/water)
[15] = single Avn in aqueous ethanolic solution (0.01 wt %)

Row | Percent inhibition of specific binding to the tachykinin NK1 receptor ([1]; test concentration 0.1 ppm) [%] | Percent inhibition of specific binding to the tachykinin NK1 receptor ([1]; test concentration 1 ppm) [%] | Percent inhibition of specific binding to the tachykinin NK1 receptor ([1]; test concentration 10 ppm) [%] | Percent inhibition of specific binding to the tachykinin NK1 receptor ([1]; test concentration 100 ppm) [%] | Content after 2 weeks at 40° C. [2] [ppm] | Content after 4 weeks at 40° C. [2] [ppm] | Content before treatment [2] [ppm] | Degradation in % ([2]; after 4 weeks at 40° C.) [%] | Content after treatment [3, 14] [ppm] | Degradation in % [3, 14] [%] | Content before treatment [3, 14] [ppm] | Content after treatment [3, 15] [ppm] | Degradation in % [3, 15] [%] | Content before treatment [3, 15] [ppm] | ΔE (colour difference, CIELAB) [3, 15] | inhibition at 0.1 ppm ([1]; test concentration 0.1 ppm) [%] | inhibition at 1 ppm ([1]; test concentration 1 ppm) [%] | inhibition at 10 ppm ([1]; test concentration 10 ppm) [%] | inhibition at 100 ppm ([1]; test concentration 100 ppm) [%] | inhibition at 125 ppm [1] [%] | SMILES | other results
1 | 9 | 15 | 27 | 94 | 16 | 10 | 20 | 50 | <1 | 100 | 10 | 89 | 15 | 105 | 2.3 |  |  |  |  |  | O=C(C=Cc1ccc(O)c(O)c1)Nc1ccc(O)cc1C(=O)O [Avn C, N-(3′-4′-dihydroxycinnamoyl)-5-hydroxyanthranilic acid] | Degradation in % ([2]; after 2 weeks at 40° C.): 20%; Degradation in % ([3]; Avn in mixture DragoCalm SP (glycerin/water), listed as Avenanthramide C): completely degraded
2 |  |  |  |  | 50 | 50 | 50 |  | 34 | 3 | 35 | 104 | 0 | 104 | 0.2 | 3 | 8 | 14 | 21 | 9 | O=C(C=Cc1ccc(O)cc1)Nc1ccc(O)cc1C(=O)O [Avn A, N-(4′-hydroxycinnamoyl)-5-hydroxyanthranilic acid] | RQ value, HSPB2 (=HSP27) [4]: 1.9; RQ value, BLVRB [5]: no effect; RQ value, CD44 [6]: no effect; Mean antioxidant activity (inhibition of radical formation) ([7]; 5 μM): 40 ± 4%; Mean antioxidant activity (inhibition of radical formation) ([7]; 10 μM): 76 ± 4%; inhibition at 500 µM [8]: 14 ± 6%; Degradation in % ([3]; Avn in mixture DragoCalm SP (glycerin/water), listed as Avenanthramide A): stable
3 | 8 | 6 | 8 | 19 |  |  |  |  |  |  |  |  |  |  |  |  |  |  |  |  | O=C(CCc1ccc(O)cc1)Nc1ccccc1C(=O)O [Dihydroavenanthramide D, dihydroavenanthramide D] | 
4 |  |  |  |  | 11 | 10 | 11 | 9 | 7 |  | 8 | 100 |  | 103 | 0.6 | 9 | 15 | 20 | 42 | 37 | O=C(/C=C/C=C/c1ccc(O)cc1)Nc1ccc(O)cc1C(=O)O [Avn L, 5-hydroxy-2-[(2E,4E)-5-(4-hydroxyphenyl)penta-2,4-dienamido]benzoic acid] | RQ value, HPRT1 (housekeeping) ([9]; nHEK (Example 4 gene array)): 1.0; RQ value, HPRT1 (housekeeping) ([9]; nHEK, vs DMSO vehicle (Example 3)): 1.0; RQ value, CRYAB [10]: 2.1 and 1.6; RQ value, CRYAB ([10]; listed as avenanthramide L): upregulates; RQ value, HSP90AA1 [11]: 0.9; RQ value, HSP90AA1 ([11]; listed as avenanthramide L): no effect; RQ value, HSP90AB1 [12]: 0.4 and 0.5; RQ value, HSP90AB1 ([12]; listed as avenanthramide L): no effect; RQ value, BLVRB ([5]; listed as avenanthramide L): upregulates; RQ value, CD44 ([6]; listed as avenanthramide L): upregulates; Mean antioxidant activity (inhibition of radical formation) ([7]; 5 μM): 40 ± 4%; Mean antioxidant activity (inhibition of radical formation) ([7]; 5 μM, listed as Avenanthramide L): at least 40%; Mean antioxidant activity (inhibition of radical formation) ([7]; 10 μM): 74 ± 4%; Mean antioxidant activity (inhibition of radical formation) ([7]; 10 μM, listed as avenanthramide L): at least 70%; Inhibition of oxidation ([8]; 500 μM): higher antioxidant activity than avenanthramide A; inhibition at 500 µM [8]: 49 ± 7%; Degradation in % [13]: 13%; Degradation in % ([13]; 0.01 wt %): 3%
